Source: patent US12528826B2, “[1,4]oxazepino[2,3-c]quinolinone derivatives as BCL6 inhibitors” (Cancer Research Technology Limited, priority 2019, dated 2026)

Target: T1, Trx-6×His-BCL6 (human BCL6 BTB domain covering amino-acid sequence 5-129) (Homo sapiens, UniProt P41182)
T1 construct: made in house
Assay: HTRF assay (BCL6 / BCOR peptide)
Assay type: binding
Conditions: 1 nM Trx-6×His-BCL6, 300 nM BCOR-AF633 peptide, 2 hours incubation at room temperature; for IC50: read-out: HTRF avg pIC50 (converted)
Experimental: After 2 hours incubation at room temperature the plate was read on a Pherastar FSX (BMG Labtech) plate reader equipped with 337 nm laser excitation filter, a first emission filter at 620 nm and a second emission filter at 665 nm. The % inhibition at each concentration was calculated by normalising FRET ratio to the appropriate high (DMSO with all reagents) and low (DMSO without BCL6) controls.

IC50 [nM] | HTRF avg pIC50 | SMILES
12.3 | – | Cn1c(=O)c2c(c3cc(Nc4nc(N5CC[C@@H](F)[C@@H](F)C5)ncc4Cl)ccc31)N[C@@H](C1CC1)C(F)(F)CO2 (racemic) [Example 10a, (S)-10-((5-chloro-2-((3S,4R)-3,4-difluoropiperidin-1-yl)pyrimidin-4-yl)amino)-2-cyclopropyl-3,3-difluoro-7-methyl-1,2,3,4-tetrahydro-[1,4]oxazepino[2,3-c]quinolin-6(7H)-one; (S)-10-((5-chloro-2-((3R,4S)-3,4-difluoropiperidin-1-yl)pyrimidin-4-yl)amino)-2-cyclopropyl-3,3-difluoro-7-methyl-1,2,3,4-tetrahydro-[1,4]oxazepino[2,3-c]quinolin-6(7H)-one]
– | 7.81 | C[C@H]1CN(c2ncc(Cl)c(Nc3ccc4c(c3)c3c(c(=O)n4C)OCC(F)(F)[C@H](C4CC4)N3)n2)CCC1(F)F (single isomer, unassigned) [Example 14a, (S)-10-((5-chloro-2-((S)-4,4-difluoro-3-methylpiperidin-1-yl)pyrimidin-4-yl)amino)-2-cyclopropyl-3,3-difluoro-7-methyl-1,2,3,4-tetrahydro-[1,4]oxazepino[2,3-c]quinolin-6(7H)-one or (S)-10-((5-chloro-2-((R)-4,4-difluoro-3-methylpiperidin-1-yl)pyrimidin-4-yl)amino)-2-cyclopropyl-3,3-difluoro-7-methyl-1,2,3,4-tetrahydro-[1.4]oxazepino[2,3-c]quinolin-6(7H)-one]
2.34 | – | C[C@H]1CN(c2ncc(Cl)c(Nc3ccc4c(c3)c3c(c(=O)n4C)OCC(F)(F)[C@H](C4CC4)N3)n2)CC(=O)N1C [Example 1c, (S)-10-((5-chloro-2-((S)-3,4-dimethyl-5-oxopiperazin-1-yl)pyrimidin-4-yl)amino)-2-cyclopropyl-3,3-difluoro-7-methyl-1,2,3,4-tetrahydro-[1,4]oxazepino[2,3-c]quinolin-6(7H)-one]
25.7 | – | C[C@@H]1CCCN(c2ncc(Cl)c(Nc3ccc4c(c3)c3c(c(=O)n4C)OCC(F)(F)[C@H](C4CC4)N3)n2)C1 [Example 1l, (S)-10-((5-chloro-2-((R)-3-methylpiperidin-1-yl)pyrimidin-4-yl)amino)-2-cyclopropyl-3,3-difluoro-7-methyl-1,2,3,4-tetrahydro-[1,4]oxazepino[2,3-c]quinolin-6(7H)-one]
9.33 | – | Cn1c(=O)c2c(c3cc(Nc4nc(N5CCC(F)(CO)CC5)ncc4Cl)ccc31)N[C@@H](C1CC1)C(F)(F)CO2 [Example 9o, (S)-10-((5-chloro-2-(4-fluoro-4-(hydroxymethyl)piperidin-1-yl)pyrimidin-4-yl)amino)-2-cyclopropyl-3,3-difluoro-7-methyl-1,2,3,4-tetrahydro-[1,4]oxazepino[2,3-c]quinolin-6(7H)-one]
3.09 | – | CN(C)C[C@@H]1CCCN(c2ncc(Cl)c(Nc3ccc4c(c3)c3c(c(=O)n4C)OCC(F)(F)[C@H](C4CC4)N3)n2)C1 [Example 9b, (S)-10-((5-chloro-2-((S)-3-((dimethylamino)methyl)piperidin-1-yl)pyrimidin-4-yl)amino)-2-cyclopropyl-3,3-difluoro-7-methyl-1,2,3,4-tetrahydro-[1,4]oxazepino[2,3-c]quinolin-6(7H)-one]
3.47 | – | Cn1c(=O)c2c(c3cc(Nc4nc(N5CC(CC#N)C5)ncc4Cl)ccc31)N[C@@H](C1CC1)C(F)(F)CO2 [Example 11t, (S)-2-(1-(5-chloro-4-((2-cyclopropyl-3,3-difluoro-7-methyl-6-oxo-1,2,3,4,6,7-hexahydro-[1,4]oxazepino[2,3-c]quinolin-10-yl)amino)pyrimidin-2-yl)azetidin-3-yl)acetonitrile]
30.9 | – | CCCN(C)c1ncc(Cl)c(Nc2ccc3c(c2)c2c(c(=O)n3C)OCC(F)(F)[C@H](C3CC3)N2)n1 [Example 11i, (S)-10-((5-chloro-2-(methyl(propyl)amino)pyrimidin-4-yl)amino)-2-cyclopropyl-3,3-difluoro-7-methyl-1,2,3,4-tetrahydro-[1,4]oxazepino[2,3-c]quinolin-6(7H)-one]
3.47 | – | Cc1noc(-c2cc(Nc3ccc4c(c3)c3c(c(=O)n4C)OCC(F)(F)[C@H](C4CC4)N3)c(Cl)cn2)n1 [Example 4a, (S)-10-((5-chloro-2-(3-methyl-1,2,4-oxadiazol-5-yl)pyridin-4-yl)amino)-2-cyclopropyl-3,3-difluoro-7-methyl-1,2,3,4-tetrahydro-[1,4]oxazepino[2,3-c]quinolin-6(7H)-one]
9.33 | – | Cn1c(=O)c2c(c3cc(Nc4nc(N5CC(C)(F)C5)ncc4Cl)ccc31)N[C@@H](C1CC1)C(F)(F)CO2 [Example 1m, (S)-10-((5-chloro-2-(3-fluoro-3-methylazetidin-1-yl)pyrimidin-4-yl)amino)-2-cyclopropyl-3,3-difluoro-7-methyl-1,2,3,4-tetrahydro-[1,4]oxazepino[2,3-c]quinolin-6(7H)-one]

Continued, molecule first:

SMILES | IC50 [nM] | HTRF avg pIC50
Cn1c(=O)c2c(c3cc(Nc4nc(N5C[C@H](O)C[C@H](F)C5)ncc4Cl)ccc31)N[C@@H](C1CC1)C(F)(F)CO2 [Example 9a-1, (S)-10-((5-chloro-2-((3S,5R)-3-fluoro-5-hydroxypiperidin-1-yl)pyrimidin-4-yl)amino)-2-cyclopropyl-3,3-difluoro-7-methyl-1,2,3,4-tetrahydro-[1,4]oxazepino[2,3-c]quinolin-6(7H)-one] | 1.82 | –
Cn1c(=O)c2c(c3cc(Nc4nc(N5CCCC(F)C5)ncc4Cl)ccc31)N[C@@H](C1CC1)C(F)(F)CO2 (stereo partly drawn) [Example 12x40, (2S)-10-((5-chloro-2-(3-fluoropiperidin-1-yl)pyrimidin-4-yl)amino)-2-cyclopropyl-3,3-difluoro-7-methyl-1,2,3,4-tetrahydro-[1,4]oxazepino[2,3-c]quinolin-6(7H)-one] | 10.7 | –
CC1CCC(CO)N(c2ncc(Cl)c(Nc3ccc4c(c3)c3c(c(=O)n4C)OCC(F)(F)[C@H](C4CC4)N3)n2)C1 (stereo partly drawn) [Example 12x10, (2S)-10-((5-chloro-2-(2-(hydroxymethyl)-5-methylpiperidin-1-yl)pyrimidin-4-yl)amino)-2-cyclopropyl-3,3-difluoro-7-methyl-1,2,3,4-tetrahydro-[1,4]oxazepino[2,3-c]quinolin-6(7H)-one] | 11.7 | –
CC1CC(C(=O)N2CC(F)(F)C2)CN(c2ncc(Cl)c(Nc3ccc4c(c3)c3c(c(=O)n4C)OCC(F)(F)[C@H](C4CC4)N3)n2)C1 (stereo partly drawn) [Example 12x31, (2S)-10-((5-chloro-2-(3-(3,3-difluoroazetidine-1-carbonyl)-5-methylpiperidin-1-yl)pyrimidin-4-yl)amino)-2-cyclopropyl-3,3-difluoro-7-methyl-1,2,3,4-tetrahydro-[1,4]oxazepino[2,3-c]quinolin-6(7H)-one] | 3.8 | –
C[C@@H]1CCN(c2ncc(Cl)c(Nc3ccc4c(c3)c3c(c(=O)n4C)OCC(F)(F)[C@H](C4CC4)N3)n2)C1 [Example 12x02, (S)-10-((5-chloro-2-((R)-3-methylpyrrolidin-1-yl)pyrimidin-4-yl)amino)-2-cyclopropyl-3,3-difluoro-7-methyl-1,2,3,4-tetrahydro-[1,4]oxazepino[2,3-c]quinolin-6(7H)-one] | 21.4 | –
